This note sets out measurements from PubChem BioAssay (NCI).

Among the test systems are 786-0 renal; EKVX NSCLC; IGROV1 ovarian; KM12 colon; M14 melanoma; MDA-MB-435; SF-268 CNS; SF-295 CNS; SNB-75 CNS; SK-OV-3 ovarian.
Assay in all cases: inhibition of tumour cell growth, NCI panel, 48 h

Molecules are shown by their SMILES. Values joined by “and” are separate entries in the source; they are usually repeats but may differ in a detail not shown here. Equal entries are not always repeated.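 Grown in 96-well plates, cells were treated for 48 hours with each compound at five concentrations. Insufficient inhibition: endpoint recorded as highest concentration tested. GI50 marks 50% less growth. Definition used: TGI = concentration required for complete inhibition of growth.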 Where a SMILES comes first, the peptide text is derived from it. The star is where a group is joined. Boc = CC(C)(C)OC(=O)*; OBn = c1ccc(CO*)cc1

On to `Cn1c([C@H](C#N)C(=O)c2cc(O)ccc2[N+](=O)[O-])nc2ccccc21`, for which the TGI in the test on 786-0 renal, in the test on EKVX NSCLC, in the test on IGROV1 ovarian, in the test with KM12 colon, with M14 melanoma and in the test on MDA-MB-435 was more than 100 µM in each case. Besides, the TGI in the test on SF-268 CNS, in the test on SF-295 CNS and with SNB-75 CNS was more than 100 µM in each case.
`O=[N+]([O-])c1ccc2oc(=Nc3ccccc3)c(Nc3ccccc3)nc2c1`: the TGI in the test with 786-0 renal was 76.6 µM; in the test on EKVX NSCLC, more than 100 µM; in the test on IGROV1 ovarian it was more than 100 µM; in the test on KM12 colon, more than 100 µM; in the test with MDA-MB-435, more than 100 µM; with SF-268 CNS it was more than 100 µM. Also, the values for the TGI with SF-295 CNS, in the test with SK-OV-3 ovarian and in the test with SNB-75 CNS were more than 100 µM, more than 100 µM and 79.6 µM, respectively.
For `CCOc1ccc(N=NC2C(=O)N(C(=O)CC(=O)Nc3ccccc3)N=C2C)cc1` (configuration not stated), the TGI in the test on 786-0 renal was more than 100 µM; with EKVX NSCLC it was more than 100 µM; in the test with IGROV1 ovarian, more than 100 µM; in the test on KM12 colon, more than 100 µM; in the test with M14 melanoma, more than 100 µM; in the test with MDA-MB-435, 23.8 µM. The TGI in the test with SF-268 CNS, with SF-295 CNS and with SNB-75 CNS was more than 100 µM each time.
For `N=C(N)SCCC(=O)CCSC(=N)N`, the TGI in the test on KM12 colon, in the test with M14 melanoma, in the test with MDA-MB-435, with SF-268 CNS, in the test on SF-295 CNS and with SK-OV-3 ovarian was more than 100 µM in each case. Moreover, in the test on SNB-75 CNS, the TGI is more than 100 µM.
For `CC(C)=CCOc1cc(NC(=S)c2ccsc2C)ccc1Cl`, the TGI was more than 100 µM with 786-0 renal; more than 100 µM in the test with EKVX NSCLC; 89.3 µM in the test on IGROV1 ovarian; more than 100 µM in the test with KM12 colon; more than 100 µM in the test with MDA-MB-435; more than 100 µM in the test with SF-268 CNS. For the same compound, the TGI in the test with SF-295 CNS is more than 100 µM; in the test with SK-OV-3 ovarian it was more than 100 µM; in the test with SNB-75 CNS, 66.4 µM.
Consider `CC1(C)C(CCO)CC1n1ccc(=O)[nH]c1=O` (configuration not stated), for which the TGI in the test with 786-0 renal, in the test with EKVX NSCLC, with KM12 colon, in the test on M14 melanoma, with MDA-MB-435 and in the test on SF-268 CNS was more than 100 µM in each case. The TGI in the test on SF-295 CNS, in the test with SK-OV-3 ovarian and with SNB-75 CNS was more than 100 µM each time.
Take `COC(=O)C1=C(O)C(C(=O)OC)[C@]2(O)[C@@H](C(=O)OC)[C@H]1C[C@@H](c1ccccc1)[C@@H]2C(=O)OC` (some centres not stated): the TGI in the test with EKVX NSCLC was found to be 53.6 µM; with KM12 colon, 25.8 µM; in the test on M14 melanoma, 24.5 µM; in the test on MDA-MB-435, 30.6 µM; in the test on SF-268 CNS, 8.12 µM; with SK-OV-3 ovarian, 47.3 µM. In addition, in the test on SNB-75 CNS, the TGI was more than 100 µM.
Regarding `COc1ccc(/C=C/C(=O)c2ccc(-n3cc(CN4CCN(c5cc6c(cc5F)c(=O)c(C(=O)O)cn6C5CC5)CC4)nn3)cc2)cc1OC`, the GI50 was 4.24 µM in the test with EKVX NSCLC; 1.57 µM in the test on KM12 colon; 1.49 µM in the test on MDA-MB-435; 3.09 µM in the test on SF-268 CNS; 2.91 µM in the test on SF-295 CNS; 7.09 µM with SK-OV-3 ovarian. Also, in the test on SNB-75 CNS, the GI50 is 1.49 µM. Also, the TGI was more than 100 µM with EKVX NSCLC; 4.46 µM in the test on KM12 colon; 4.67 µM with MDA-MB-435; more than 100 µM with SF-268 CNS; more than 100 µM in the test on SF-295 CNS; more than 100 µM in the test on SK-OV-3 ovarian. In addition, in the test on SNB-75 CNS, the TGI worked out at 4.29 µM.
With `O=C1CC(C(OCc2ccccc2)C(OCc2ccccc2)C(COCc2ccccc2)OCc2ccccc2)CC(=O)N1` (configuration not stated), the TGI in the test with 786-0 renal, in the test with EKVX NSCLC, with IGROV1 ovarian, in the test with KM12 colon, in the test on M14 melanoma and in the test on MDA-MB-435 was more than 100 µM throughout. Also, the TGI in the test with SF-268 CNS, in the test on SF-295 CNS and in the test on SNB-75 CNS was more than 100 µM in each case. Moreover, the GI50 is > 100 µM and 37.9 µM in the test with KM12 colon; 29.7 µM and > 75 µM in the test with SNB-75 CNS.
As for `COC(=O)c1c(C)cccc1C1CN=NC12Cc1ccc(C)c(C)c1C2=O` (configuration not stated), the TGI in the test on 786-0 renal was more than 100 µM; in the test on EKVX NSCLC, 82.5 µM; in the test with IGROV1 ovarian it was more than 100 µM; with KM12 colon, more than 100 µM; in the test with M14 melanoma, 96.2 µM; with MDA-MB-435 it was more than 100 µM. The TGI in the test on SF-268 CNS, with SF-295 CNS and in the test with SNB-75 CNS was more than 100 µM throughout.
With `CC(C)CC(NC(=O)OC(C)(C)C)C(=O)NC(CC(=O)OCc1ccccc1)C(=O)OCc1ccccc1` (stereo not drawn) (Boc-Leu-Asp(OBn)-OBn; configuration not given here), the TGI in the test with 786-0 renal is 49.6 µM; with EKVX NSCLC, more than 100 µM; in the test on KM12 colon, more than 100 µM; in the test on M14 melanoma it was 38.6 µM; with MDA-MB-435 it was more than 100 µM; with SF-268 CNS, more than 100 µM. In addition, the TGI in the test with SF-295 CNS, with SK-OV-3 ovarian and in the test on SNB-75 CNS was more than 100 µM in each case.
